Laboratory results as given in patent US9517230B2, “Small molecule RNase inhibitors and methods of use” (UNIVERSITY OF ROCHESTER, priority 2011, dated 2016).
Entries after “also recorded” stand apart in the source; their conditions may differ.

Key:
S. aureus RnpA = target: T1, S. aureus RnpA (Staphylococcus aureus, UniProt P0A0H5); assay: RnpA-mediated RNA (spa mRNA) degradation inhibitory titration assay; type: biochemical; details: for IC50: 1 pmol spa mRNA, 20 pmol RnpA, one hour at 37° C., agarose gel, read-out: apparent IC50
T1 construct: hexahistidine-tag (pET-30 Ek/LIC leader) (N); made in house; host or cells: E. coli BL21 (DE3)
T1 sequence (P0A0H5 1-117): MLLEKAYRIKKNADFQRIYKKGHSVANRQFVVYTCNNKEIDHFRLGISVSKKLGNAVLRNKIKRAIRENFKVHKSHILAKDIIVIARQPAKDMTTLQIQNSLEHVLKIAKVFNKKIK
Procedure: Specifically, members of the ActiProbe-25K and Natural Product libraries (29,940 compounds total; TimTec Inc.; Newark, Del.) were screened for small molecule inhibitors of S. aureus RnpA mediated total bacterial RNA degradation. All reactions (50 μl) were performed in 96-well format and contained 20 pmol RnpA, 200 ng S. aureus total RNA, and ˜5 μM of each compound in 1× reaction buffer (2 mM NaCl, 2 mM MgCl2, 50 mM Tris-HCl, pH 6.0). Mixtures were incubated at 37° C. for 20 min at which time Quant-iT RiboGreen® (100 μl; Invitrogen) was added to quantify the amount of RNA substrate remaining. Percent enzyme inhibition was calculated as remaining substrate/starting substrate*100. For inhibitory titration assays, 1 pmol of spa mRNA was incubated with 20 pmol RnpA alone (positive control) or in the presence of one of four compounds for one hour at 37° C. […] Following this, 20 μl of each reaction mixture were subjected to electrophoresis in a 1.2% formaldehyde-containing agarose gel and visualized by ethidium bromide staining.

MRSA = assay: Antimicrobial susceptibility testing, broth microdilution (CLSI); type: cell-based, Staphylococcus aureus; details: 18 hr at 37° C.
From the text: In some examples, compounds can be further assayed using the Mueller Hinton (MH) broth antibacterial assay as specified by the Clinical and Laboratory Standards Institute MIC broth microdilution protocol (see Methods for Dilution Antimicrobial Susceptibility Tests for Bacteria That Grow Aerobically; Approved Standard, In The Clinical and Laboratory Standards Institute (CLSI, formerly NCCLS), 7th ed., January 2006, 26 (2), M7-A7; see also Performance Standards for Antimicrobial Susceptibility Testing; Eighteenth Informational Supplement, In The Clinical and Laboratory Standards Institute (CLSI, formerly NCCLS), January 2008, 28 (1), M100-S18).
Microtiter plates containing serial dilutions of the compounds 1000 (0, 4, 8, 16, 32, 64, and 128 μg/ml) were inoculated with 10^5 colony forming units (CFU)/ml and incubated for 18 hr at 37° C.

HepG2 human hepatocytes = assay: HepG2 MTT cytotoxicity assay; type: cell-based; details: 1×, 2×, 4× the MIC value for 48 hours
Procedure: It was then assessed whether RnpA-inhibitory agent concentrations corresponding to the effective bacterial MIC values (10-50 μg/ml) elicited human cell cytotoxicity. HepG2 human hepatocytes (10^5 cells) were seeded in individual wells of a microtitre plate and incubated for 16 hr at 37° C. with 5% carbon dioxide in Dulbecco's Modified Eagle Media supplemented with 10% fetal bovine serum. Cells were then challenged with Mitomycin C (5 or 10 μg/ml; positive control) or 1, 2, or 4 times (1×, 2×, 4×) the MIC value of the indicated RnpA inhibitory compound for 48 hours. Cell viability was measured spectrophotometrically (570 nm) following the addition and subsequent reduction of tetrazolium salt (MTT) within metabolically active cells, as per the manufacturer's recommendations (American Type Culture Collection; Manassas, Va.).

SMILES | inhibition of RnpA-mediated RNA degradation (in words) (S. aureus RnpA) | IC50 (S. aureus RnpA) [µM] | antimicrobial activity against MRSA (in words) (MRSA) | human cell cytotoxicity / cell survival (in words) (HepG2 human hepatocytes) | human cell cytotoxicity / cell survival (in words) (HepG2 human hepatocytes; listed as ST006630) | human cell cytotoxicity / cell survival (in words) (HepG2 human hepatocytes; listed as ST003531)
O=C(O)CCN1C(=O)/C(=C\c2ccc(-c3ccc(Cl)cc3)o2)SC1=S [RNPA-3000] | inhibit RnpA-mediated RNA degradation; also recorded: excellent RnpA-inhibitory activity | 12.5 to 20 | moderate antimicrobial activity; also recorded: good antistaphylococcal activity | do not cause human cytotoxicity | did not affect human cell survival | –
CC(C)c1ccc(OCC(=O)NNC(=S)NC(=O)c2ccco2)cc1 [RNPA-2000] | inhibit RnpA-mediated RNA degradation; also recorded: excellent RnpA-inhibitory activity | 15 to 20 | moderate antimicrobial activity; also recorded: good antistaphylococcal activity | do not cause human cytotoxicity | – | did not affect human cell survival
